The values that follow come from patent US9975881B2, “Compound” (ASTRAZENECA AB, priority 2011, dated 2018).

A short description of data set [1]: Dog half-life (measured), in vivo pharmacokinetics. The note with it: male, 1 mg/kg; elimination half-life in plasma, intravenous 30 minute infusion, beagle dog, mean of a minimum of two dogs. The text has this: The following describes the methods used to obtain in vivo pharmacokinetic parameters in the male beagle dog. It is applicable for use with any compound but may need modification based on such parameters as solubility, assay sensitivity, anticipated clearance and half-life, when the default formulation, dose level or sampling intervals may be inappropriate. The method described here represents a standard approach from which justified and documented modifications can be made.
A standard dose solution of 1 mg·mL^−1 was prepared. The recommended dose vehicle (if the compound was not sufficiently soluble in isotonic saline) was 10%/o DMSO:90% sterile water or saline with pH adjustment using 1 M HCl or NaOH. […]
Blood samples (˜1 ml) were taken into EDTA treated sampling tubes and plasma was prepared by centrifugation (3 minutes at 13000 rpm) soon after sample collection. Samples were taken at pre determined times over 24 hours (e.g. 0, 5, 15, 30, 35, 45, 60, 90, 120, 180, 240, 300, 360, 420, 720, 1440 minutes). The concentration of the analyte(s) was quantitatively determined in plasma by mass spectrometry. […]
To each of the test samples, dose tests, standards and QCs 100 μL (90 μl for dose tests, standards and QCs) of methanol was added followed by 100 μl of internal standard. […] Aliquots (120 μL) of each sample were transferred into a microtitre plate ready for analysis via HPLC/MS-MS. […]

Data set [2] can be described thus: Distribution coefficient at pH 7.4 (Log D7.4), 1-octanol/phosphate buffer. The following applies: 1-octanol / 0.02 M phosphate buffer pH 7.4. The class given is physicochemical. Here is the method:
Measurement of Distribution Coefficient at pH 7.4 (Log D7.4)
Compounds of interest (1 mg) were dispensed into individual 1-mL polypropylene vials, held within a 96-well plate along with 1-octanol (700 μL), and presaturated with 0.02 M phosphate buffer (pH 7.4). The plate was then shaken overnight followed by centrifugation (800 g for 15 min) to sediment any undissolved solids. Up to 24 mixtures of 10 compounds (or less) were then prepared by pooling the 1-octanol solutions (100 μL) into a plate of 12-mL glass sample tubes. […] The pooling of compounds was performed robotically and controlled using automatically generated bespoke work lists. If a mixture contained less than 10 compounds, then 1-octanol (presaturated with 0.02 M phosphate buffer [pH 7.4]) was added to make up the total volume of the 1-octanol phase to 1 mL. 1-Octanol-saturated phosphate buffer (0.02 M, pH 7.4, 2 mL) was then added to each mixture before shaking (450 rpm for 30 min) and centrifugation (800 g for 15 min). The final 1-octanol and aqueous phases of each partition mixture were then robotically separated. […] Log D7.4 was calculated from the ratio of one of the 1-octanol relative concentrations to the interpolated aqueous relative concentration after correcting for the extent of dilution of both the 1-octanol and aqueous solutions.

Consider `CC1CN(S(=O)(=O)Nc2cc(O[C@H](C)[C@@H](O)CO)nc(SCc3ccc(F)cc3)n2)C1` [Example 1, N-(6-((2R,3S)-3,4-Dihydroxybutan-2-yloxy)-2-(4-fluorobenzylthio)pyrimidin-4-yl)-3-methylazetidine-1-sulfonamide], for which the half-life (as a rule, the time in which the quantity being followed falls by half) in data set [1] was 3.7 h. Moreover, the logD (as a rule, lipophilicity at a set pH, counting ionised and neutral species) in data set [2] worked out at 1.9.
